Results: patent publication US8541670B2, “Compositions and methods for inhibiting tumor cell growth” (priority 2007, dated 2013)
Where no end group is shown, it is not given here. red fluorescent dye = not defined here

Tested on: AKT
Experiment: In vivo AKT inhibition in brain after stereotactic injection (immunofluorescence, western blot)
Set-up: species or system mouse
Method: As a specific substrate, the phosphorylation level of GSK-3[…] at Ser-9 was also evaluated. […] The decrease was specific to the AKT phosphorylation site on GSK-3[…] at Ser-9, since a change in the phosphorylation level of GSK-3[…] at Tyr-216 or GSK-3[…] at Tyr-279 was not observed. Moreover, the in vivo reduction of the phosphorylation of AKT substrates was more obvious at the injection site, since a significant change in the phosphorylation of AKT substrates in the frontal cortex or cerebellum between the two hemispheres was not observed. […] To test the specificity/selectivity of ZaTa as the inhibitor of AKT1 versus the other major kinases, a series of in vitro kinase assays was performed at IC50 for AKT1 and at ten times higher concentrations. A panel of the following 32 kinases was first tested in vitro using the active form of each kinase and a specific substrate: AKT2, AKT3, PKA, PKC[…], PKC, PI3K[…], PI3K[…], PI3K, SGK, PAK2, PAK3, SAPK2/p38, Abl, CaMKII, CDK1/cyclinB, CDK5/p35, CK1, CK2, CSK, GSK3[…], GSK3[…], JNK1[…]1, MAPK1, p70S6K, PDGFR[…], PDGFR[…], PDK1, PKG1[…], TrkB, JAK2, JAK3, and Syk. […] However, at ten times higher concentration, ZaTa inhibited AKT2 (63%), PI3K[…] (72%), p70S6K (64%), SGK (73%), PAK3 (83%), JAK3 (79%), TrkB (84%), and Abl (42%). To confirm the in vitro inhibitory effect on these kinases in cells, a cell-based assay was used to determine the effect of labeled ZaTa on the phosphorylation levels of well-known intracellular substrates for each kinase (Zipfel, et al. (2004) Curr. Biol. 14:1222-1231; Wang, et al. (2003) Arch. Biochem. Biophys. 410:7-15; King, et al. (1998) Nature 396:180-183; Rangone, et al. (2004) Eur. J. Neurosci. 19:273-279; Middlemas, et al. (1994) J. Biol. Chem. 269:5458-5466; Huang, et al. (1999) J. Biol. Chem. 274:7870-7878). […] Given that most of the above-listed kinases have no known inhibitor, it is contemplated that the ZaTa could be used at micromolar concentrations in in vitro studies to inhibit the activity of the select kinases.
These different localization patterns of ZaTa within the cell were usually accompanied with redistribution of AKT to the site of ZaTa.
N2a cells were cultured in Dulbecco's Modified Eagle's Medium (DMEM) and OPTI-MEM® media (50% of each; GIBCO-BRL, Gaithersberg, Md.) supplemented with 5% fetal bovine serum (FBS; SIGMA, St. Louis, Mo.), penicillin-streptomycin and L-Glutamine (GIBCO-BRL). Cells (˜1×10^6) or frontal cortex of mouse brain (0.05-0.1 gram) were homogenized in ice cold lysate buffer (0.25 M Tris, pH 7.5) containing protease inhibitors (Protease Inhibitor Cocktail tablets; Boehringer Mannheim, Mannheim, Germany) and phosphatase inhibitors (Phosphatase Inhibitor Cocktails I & II; SIGMA) and lysed through three cycles of freezing in liquid nitrogen and thawing in a 37° C. water bath. Protein concentration was measured using a commercially available protein assay (BIO-RAD, […].) protein assay and spectrometry at […]. Equal amounts of total protein were loaded on 4-12% gradient Bis-Tris gels, separated using the NUPAGE® system (INVITROGEN, Carlsbad, Calif.) and transferred onto nitrocellulose membrane. The membrane was probed with primary and secondary antibodies and signals were detected by chemiluminescence followed by autoradiography.
For immunofluorescence analysis of mouse brain, anaesthetized mice were perfused with PBS-buffered formalin, fixed overnight, placed in PBS, and stored at 4° C. VIBRATOME® sections, 50-μm thick, were cut in the coronal plane from the fronto-striatum brain region. […] The sections were blocked overnight using 2% normal goat sera in PBS with 0.3% TRITON™ X-100 and then incubated for 48 hours in blocking solution with 1:500 dilution of anti-phospho-AKT substrate antibody. Sections were washed four times for 15 minutes in PBS, incubated with blocking solution containing goat anti-rabbit ALEXA®-568 secondary antibody (MOLECULAR PROBES, Eugene, Oreg.) for 48 hours, and washed four times for 15 minutes in PBS. […]

Substance	change in phosphorylation of AKT substrates in frontal cortex or cerebellum (away from striatal injection site, between hemispheres)	phosphorylation level of AKT substrates in vivo, western blot (one hour after stereotactic injection)	phosphorylation level of AKT substrates in striatum, immunofluorescence (stereotactic injection, versus DMSO-injected hemisphere)	change in phosphorylation level of GSK-3[…] at Tyr-216 or Tyr-279 (striatum)	phosphorylation level of GSK-3[…] at Ser-9 (striatum, versus DMSO-injected hemisphere)	phosphorylation level of AKT substrates in ZaTa-positive cells (stereotactic injection into frontal cortex)
AKRVKGRTWTLCGTPEY [ZaTa]	not observed	significant decrease	decrease in the phosphorylation level of AKT substrates	not observed	specific reduction	–
labeled ZaTa: ZaTa peptide labeled with a red fluorescent dye at its N-terminus ({red fluorescent dye}-AKRVKGRTWTLCGTPEY; reading uncertain)	–	–	–	–	–	specific reduction in phosphorylation level of AKT substrates
